{"source": "patent US5204326", "conditions": "amide bond", "key": {"[1]": {"conditions": "the molecule shown is the open-chain precursor, 23-membered ring, as Reference Example 8 (not in excerpt), 3 steps"}}, "note": "Like-named read-outs stand apart in the source and are kept apart here.", "data": [{"substance": "Acp-Asn-Leu-Ser(Bzl)-Thr(Bzl)-Asp-OEt", "values": [{"measurement": "ring closure, isolated yield", "setting": "23-membered ring, ONp active ester (from TFA-ONp)/pyridine, pyridine/DMF, 50.0 °C, 3 steps", "value": 26.6, "unit": "%"}]}, {"substance": "H-Abu-Asn-Leu-Ser(Bzl)-Thr(Bzl)-Cec(ONp)-OMe?", "values": [{"measurement": "ring closure, isolated yield", "setting": "the molecule shown is the open-chain precursor, as Reference Example 8 (not in excerpt), 3 steps", "value": 47.1, "unit": "%"}]}, {"substance": "H-Asn-Leu-Ser(Bzl)-Thr(Bzl)-Lys(COCH2CH2CO-ONp)-OMe?", "values": [{"measurement": "ring closure, isolated yield", "setting": "[1]", "value": 34.9, "unit": "%"}]}, {"substance": "H-Ser(Bzl)-Asn-Leu-Ser(Bzl)-Thr(Bzl)-Cpc(ONp)-OMe?", "values": [{"measurement": "ring closure, isolated yield", "setting": "[1]", "value": 55.9, "unit": "%"}]}, {"substance": "H-Ser(Bzl)-Asn-Leu-Ser(Bzl)-Thr(Bzl)-Tyr(CH2CO-ONp)-OMe?", "values": [{"measurement": "ring closure, isolated yield", "setting": "the molecule shown is the open-chain precursor, 25-membered ring, as Reference Example 8, then Reference Example 9 (not in excerpt), 4 steps", "value": 43.8, "unit": "%"}]}]}
